Results published in ChEMBL document CHEMBL2311258, “Manzamenones L-N, new dimeric fatty-acid derivatives from an Okinawan marine sponge Plakortis sp” (Bioorg Med Chem Lett, 2013).
≈ marks a conversion by molar mass, not a printed value.

Columns and labels:
Micrococcus luteus = assay: Antibacterial activity against Micrococcus luteus; assay type: functional
Candida albicans = assay: Antifungal activity against Candida albicans; assay type: functional, organism-based
Bacillus subtilis = assay: Antibacterial activity against Bacillus subtilis; assay type: functional
Aspergillus niger = assay: Antifungal activity against Aspergillus niger; assay type: functional, organism-based
Escherichia coli = assay: Antibacterial activity against Escherichia coli; assay type: functional
[1] = test system: Trichophyton mentagrophytes; assay: Antifungal activity against Trichophyton mentagrophytes; assay type: functional, organism-based
Staphylococcus aureus = assay: Antibacterial activity against Staphylococcus aureus; assay type: functional
Cryptococcus neoformans = assay: Antifungal activity against Cryptococcus neoformans; assay type: functional, organism-based

SMILES	MIC (Micrococcus luteus)	IC50 (Candida albicans)	MIC (Bacillus subtilis)	IC50 (Aspergillus niger)	MIC (Escherichia coli)	IC50 [1]	MIC (Staphylococcus aureus)	IC50 (Cryptococcus neoformans)
CCCCCCCCCCCCCCCCC1=C[C@H](C(=O)OC)[C@H]2C(=O)C(C(=O)OC)=C(CCCCCCCCCCCCCCCC)[C@@]2(O)[C@H]1C(=O)OC (racemic)	> 32 µg/mL	> 32 µg/mL	> 32 µg/mL	> 32 µg/mL	> 32 µg/mL	> 32 µg/mL	> 32 µg/mL	> 32 µg/mL
CCCCCCCCCCCCCCCCC1=C[C@H](C(=O)O)[C@H]2C(=O)C(C(=O)OC)=C(CCCCCCCCCCCCCCCC)[C@@]2(O)[C@H]1C(=O)OC	> 32 µg/mL	32 µg/mL (≈ 42.2 µM)	> 32 µg/mL	> 32 µg/mL	32 µg/mL (≈ 42.2 µM)	> 32 µg/mL	16 µg/mL (≈ 21.1 µM)	8 µg/mL (≈ 10.5 µM)
CCCCCCCCCCCCCCCCC1=C(C(=O)OC)C2=C(C(=O)[C@H](C(=O)OC)[C@H]2CCCCCCCCCCCCCCCC)C(C(=O)OC)C1 (some centres undefined) [MANZAMENONE N]	> 32 µg/mL	32 µg/mL (≈ 42.3 µM)	> 32 µg/mL	> 32 µg/mL	32 µg/mL (≈ 42.3 µM)	> 32 µg/mL	> 32 µg/mL	4 µg/mL (≈ 5.28 µM)
